Test systems include peripheral mast cells; anti-PA IgG; CD4 T-cells.
Parameters in all cases: species or system mice
Holding throughout (conditions): mouse, in vivo

Experimental findings from US8076059B2 (priority 2003, dated 2011) are described below.

For the substance TNF-α, in the assay with peripheral mast cells, the “lymph node hypertrophy after direct injection into footpads” value is recorded as “marked lymph node hypertrophy” and the “time of maximal lymph node growth” value was found to be 48 h. In the case of cholera toxin [CT], in the assay with anti-PA IgG, the “adjuvant activity, serum anti-PA IgG by ELISA on day 175” value was “significant adjuvant activity over PA alone” and the “adjuvant activity, serum anti-PA IgG geometric mean titers” value is reported as “significant adjuvant activity at all doses tested”. As to pertussis toxin, in the assay on CD4 T-cells, the “T-cell recruitment to draining lymph nodes after T-cell pretreatment” value is “inhibited T-cell recruitment to draining lymph nodes”.
